# Like-named read-outs stand apart in the source and are kept apart here.
# Assays:
# SERT [1] = molecular target: T1, SERT (Homo sapiens, UniProt P31645); test: Uptake-inhibition of [3H]5-HT in HEK293 cells stably expressing human SERT; format: cell-based
# T1 construct: expressed in transfected cells
# human NET = molecular target: T2, human NET (Homo sapiens, UniProt P23975); test: cell-based
# T2 construct: expressed in transfected cells
# DAT [2] = molecular target: T3, DAT (Homo sapiens, UniProt Q01959); test: Transporter electrophysiology (whole cell patch clamp), HEK293 cells stably expressing DAT; format: cell-based; details: compound applied at 30 µM, -60 mV
# T3 construct: expressed in transfected cells
# T3 sequence (Q01959 whole entry): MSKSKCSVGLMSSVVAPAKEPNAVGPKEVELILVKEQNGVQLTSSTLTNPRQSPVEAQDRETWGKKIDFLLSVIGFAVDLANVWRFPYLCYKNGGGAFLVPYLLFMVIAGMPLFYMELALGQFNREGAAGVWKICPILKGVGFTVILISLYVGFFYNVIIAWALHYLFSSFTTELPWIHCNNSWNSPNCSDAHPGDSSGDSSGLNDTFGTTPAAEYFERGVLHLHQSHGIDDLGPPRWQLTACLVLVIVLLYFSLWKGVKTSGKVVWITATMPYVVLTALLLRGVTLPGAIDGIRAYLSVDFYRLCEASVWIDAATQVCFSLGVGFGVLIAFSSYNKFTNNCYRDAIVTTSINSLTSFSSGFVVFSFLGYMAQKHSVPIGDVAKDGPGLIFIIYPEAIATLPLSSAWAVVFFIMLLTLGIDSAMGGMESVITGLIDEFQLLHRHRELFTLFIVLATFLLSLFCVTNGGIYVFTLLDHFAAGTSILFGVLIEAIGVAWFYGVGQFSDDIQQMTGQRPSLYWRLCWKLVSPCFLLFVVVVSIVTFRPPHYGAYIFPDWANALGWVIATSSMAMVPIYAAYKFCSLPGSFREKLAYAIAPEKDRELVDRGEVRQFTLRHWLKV
# Protocol: (§1) Human embryonic kidney 293 cells (HEK293 cells) were cultivated in Dulbecco’s Modified Eagle Medium (DMEM), containing 10% heat-in- activated fetal calf serum (FCS), streptomycin (100 μg x 100 ml−1) and penicillin (100 U × 100 ml−1). Geneticin (50 μg x mL−1) was added to select HEK293 cells stably expressing the human isoforms of DAT, NET and SERT as described earlier ([Mayer et al., 2016a]). Cell lines were maintained in a sub-confluent state in humidified atmosphere (37°C, 5% CO2). For uptake inhibition experiments cells expressing the desired transporter were seeded the days before the experiment (40,000 cells per well) or two days before the experiments (20,000 cells per well) onto poly-D-lysine (PDL) coated 96-well plates 24 h prior to the experiment. In the case of transporter-electrophysiology cells were cultivated in 10 cm dishes and 24 h before the experiments they were detached, and seeded at low density onto PDL-coated 3 cm dishes.
# (§2) Transporter electrophysiology was conducted by the means of whole cell patch clamp in HEK293 cells stably expressing DAT or SERT. Substrate-induced currents were recorded under voltage clamp (−60 mV). Cells were continuously superfused with a physiological external solution that contains 140 mM NaCl, 2.5 mM CaCl2, 2 mM MgCl2, 20 mM glucose and 10 mM HEPES, pH = 7.4. The pipette solution contained 133 mM potassium gluconate, 6 mM NaCl, 1 mM CaCl2, 0.7 mM MgCl2, 10 mM HEPES, 10 mM EGTA, pH = 7.2. Currents elicited by mephedrone 30 μM, were measured at room temperature (20–24°C) using an […] amplifier and pClamp 11.2 software (MDS Analytical Technologies). All the solutions perfused onto the cell were applied using a DAD-12 superfusion system and a 8-tube perfusion manifold (ALA Scientific Instruments), which allowed for rapid solution exchange. Current traces were filtered at 1 kHz and digitized at 10 kHz using a Digidata 1,550 (MDS Analytical Technologies). […] For the analysis, passive holding currents were subtracted, and the traces were filtered using a 100-Hz digital Gaussian low-pass filter.
# DAT [3] = molecular target: T3, DAT; test: cell-based
# [4] = LC-MS/MS detection of mephedrone metabolites in a human urine sample; format: in vivo; set-up: key to Detected in urine samples: detected (+); not detected (−); details: for Detected in urine samples: human urine, mephedrone user, only syn- and anti-configurations could be separated; for detection in human urine sample: achiral LC-MS/MS, after enzymatic workup
# Description: The biological specimen, human urine, was provided by the Department of Chemical Analytics, Seibersdorf Laboratories GmbH. The sample was taken from a subject postmortem in a fatal case of drug overdose. […] Given this fact, we assumed that also the metabolites would be detectable in sufficient quantity. To evaluate the presence of any metabolites whatsoever in the urine sample we designed an achiral separation protocol for liquid chromatography and we coupled it with triple quadrupole mass spectrometer. The advantage of LC-MS/MS system is that even if two substances have the same retention time, they can still be differentiated by their fragmentation pattern. More in details, the samples for urine analysis were analyzed using a CTC HTS PAL autosampler (CTC Analytics) and a Thermo Surveyor LC system (Thermo) interfaced to a TSQ Quantum Discovery Max triple quadrupole mass spectrometer (Thermo). A C18 security guard cartridge (4 × 2 mm) (Phenomenex) was used for sample clean-up and the analytical HPLC column was a Kinetex 1.7 μm C18 100Å 150 × 2.1 mm (Phenomenex) and Cortecs T3, 2.7 μm C18 120Å 100 × 2.1 mm (Waters). Column selection was performed by a Maylab Mistraswitch column selector (Maylab Analytical Instruments). The solvents were 0.2% formic acid in water (A) and acetonitrile (B). The temperature of the analytical column was maintained at 40°C. The mass spectrometer was equipped with heated electrospray ionization (ESI) source and was operated in positive ionization mode with a spray voltage set at 4500V. The capillary temperature was adjusted to 320°C. The sheath and auxiliary gas (nitrogen) flow rate was 25 and 10 arbitrary units, respectively. The system was operated in selected […] (srm) mode with argon as the collision gas at a pressure of 1.5 mTorr. For the achiral separation, stem solutions were prepared by weighing the reference substances in volumetric flasks and filling them up with MeOH (99.9%; HPLC grade), creating average concentration of 1 mg/ml. Then dilution solutions were prepared as follows: 10 μL of stem solution was filled up to 5 ml MeOH, creating dilution […]. Samples were prepared from dilution solutions by taking out 25 μL and mixing it together with 25 μL of ISP, 50 μL ISS and filled up to 1 ml with Milli-Q water. The final sample solvent was water/MeOH 9/1. For the enzymatic workup, phosphate buffer (1 ml, 0.8M, pH = 7), β-glucuronidase/arylsulfatase (25 μL) and β-glucuronidase (25 μL) were added to the solutions. The solutions were heated at 50°C during 1 h upon which EtOAc (7 ml) was added. The solution was put into shaker for 10min, following centrifugation for 5 min. The organic phase was separated and evaporated into dryness in stream of pressurized nitrogen. The residue was taken up in 150 μL MQ-water/MeOH 9/1 + 0.4% formic acid, heated at 50°C for 5 min and subjected to LC-MS analysis.
# If on one hand the synthesis of putative metabolites allows the establishment of structure activity relationships, on the other hand, it provides pure material to evaluate their presence in human urine samples and determine their pharmacological relevance. To determine the presence of any metabolites in the urine sample, we have designed an achiral separation protocol and coupled the liquid chromatography with triple quadrupole mass spectrometer (LCMS/MS). With the LCMS/MS system two substances with the same retention time, can still be differentiated by their fragmentation pattern. Since metabolites carrying a primary alcohol functionality can form glucuronide and sulfate conjugates, we performed an enzymatic workup of the urine sample in order to cleave them. Apart from the parental drug, we detected 4-OH-MMC and 4-MC (nor-meph) which we have both already identified in our previous publication ([Mayer et al., 2019]), and the two previously uncharacterized metabolites 4-COOH-MC and dihydro-4-MC (Figure 6). […]
# SERT [5] = molecular target: T1, SERT; test: Transporter electrophysiology (whole cell patch clamp), HEK293 cells stably expressing SERT; format: cell-based; details: compound applied at 30 µM, -60 mV
# Protocol: as §1, §2
# SERT [6] = molecular target: T1, SERT; details: read-out: IC50 SERT; QSAR data matrix; unit inferred; compounds not tested in this paper, source not given, presumably ref Mayer et al., 2019; cited from earlier work
# [7] = mean (95% confidence interval), non-linear regression, read-out: IC50 (µM) NET
# [8] = QSAR data matrix, from IC50 DAT, read-out: pIC50 DAT (converted)
# [9] = mean (95% confidence interval), non-linear regression, read-out: IC50 (µM) DAT
# [10] = mean (95% confidence interval), non-linear regression, read-out: IC50 (µM) SERT
# T2 sequence (P23975 whole entry): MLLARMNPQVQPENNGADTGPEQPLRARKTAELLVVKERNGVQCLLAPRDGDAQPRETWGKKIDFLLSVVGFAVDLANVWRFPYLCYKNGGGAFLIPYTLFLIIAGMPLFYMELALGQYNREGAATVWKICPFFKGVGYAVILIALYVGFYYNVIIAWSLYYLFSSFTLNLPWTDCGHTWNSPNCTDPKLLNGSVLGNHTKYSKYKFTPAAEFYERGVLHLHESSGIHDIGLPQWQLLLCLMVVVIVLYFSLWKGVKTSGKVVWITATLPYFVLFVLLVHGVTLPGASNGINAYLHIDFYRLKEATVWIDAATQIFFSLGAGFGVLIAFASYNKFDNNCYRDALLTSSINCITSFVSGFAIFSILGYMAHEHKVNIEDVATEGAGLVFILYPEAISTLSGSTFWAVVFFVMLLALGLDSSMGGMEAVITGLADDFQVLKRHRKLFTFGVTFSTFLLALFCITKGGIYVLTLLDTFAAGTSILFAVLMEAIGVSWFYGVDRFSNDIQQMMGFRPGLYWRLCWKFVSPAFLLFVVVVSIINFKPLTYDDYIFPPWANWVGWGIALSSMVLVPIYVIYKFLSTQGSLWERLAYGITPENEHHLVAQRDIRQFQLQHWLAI
# T1 sequence (P31645 whole entry): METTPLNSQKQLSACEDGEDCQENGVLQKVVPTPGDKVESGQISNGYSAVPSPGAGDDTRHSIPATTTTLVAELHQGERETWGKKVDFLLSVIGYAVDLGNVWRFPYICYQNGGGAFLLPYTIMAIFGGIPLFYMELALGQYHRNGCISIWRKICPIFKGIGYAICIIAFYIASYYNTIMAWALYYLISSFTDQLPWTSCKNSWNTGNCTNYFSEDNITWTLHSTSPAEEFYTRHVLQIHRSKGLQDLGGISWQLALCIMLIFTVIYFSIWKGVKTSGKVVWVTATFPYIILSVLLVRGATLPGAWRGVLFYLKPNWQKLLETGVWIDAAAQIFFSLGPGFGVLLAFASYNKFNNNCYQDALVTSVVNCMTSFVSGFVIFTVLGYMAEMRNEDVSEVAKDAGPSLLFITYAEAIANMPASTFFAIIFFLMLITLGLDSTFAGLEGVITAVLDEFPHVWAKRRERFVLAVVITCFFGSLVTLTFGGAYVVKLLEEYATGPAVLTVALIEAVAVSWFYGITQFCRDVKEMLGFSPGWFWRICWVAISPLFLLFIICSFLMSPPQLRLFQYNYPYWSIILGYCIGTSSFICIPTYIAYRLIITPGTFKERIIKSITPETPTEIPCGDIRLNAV
compound,measurement,setting,value
"Cc1ccc([C@H](O)[C@@H](C)N)cc1 [Dihydro-(S,R)-4-MC]",IC50,"SERT [1]; IC50 (µM) SERT, mean (95% confidence interval), non-linear regression",178 µM
same,IC50,"SERT [1]; IC50 SERT, QSAR data matrix, unit inferred",178 µM
same,Selectivity ratio NET/DAT,human NET,0.37
same,IC50,human NET; [7],41.8 µM
same,DAT-mediated current,DAT [2],absence of DAT-mediated current
same,Selectivity ratio DAT/SERT,DAT [3],11.53
same,IC50,DAT [3]; [8],15.5 µM
same,IC50,DAT [3]; [9],15.5 µM
same,Detected in urine samples,[4],+
"Cc1ccc(C(O)C(C)N)cc1 (centres unmarked) [dihydro-4-MC, dihydro-4-nor-mephedrone]",detection in human urine sample,[4],detected
"CN[C@@H](C)[C@@H](O)c1ccc(CO)cc1 [Dihydro-(S,S)-4-OH-MMC]",IC50,SERT [1]; [10],1850 µM
same,Selectivity ratio NET/DAT,human NET,0.55
same,IC50,human NET; [7],291 µM
same,Selectivity ratio DAT/SERT,DAT [3],11.49
same,IC50,DAT [3]; [8],162 µM
same,IC50,DAT [3]; [9],161 µM
same,Detected in urine samples,[4],−
C[C@H](N)C(=O)c1ccc(CO)cc1 [S-4-OH-MC],SERT-mediated current,SERT [5],elicited both DAT- and SERT mediated currents
same,IC50,SERT [1]; [10],40 µM
same,Selectivity ratio NET/DAT,human NET,3.22
same,IC50,human NET; [7],5.97 µM
same,DAT-mediated current,DAT [2],elicited both DAT- and SERT mediated currents
same,Selectivity ratio DAT/SERT,DAT [3],2.08
same,IC50,DAT [3]; [9],19.2 µM
same,Detected in urine samples,[4],−
CNC(C)C(O)c1ccc(CO)cc1 (centres unmarked) [dihydro-4-OH-MMC],detection in human urine sample,[4],not found
"C[C@@H](N)[C@H](O)c1ccc(CO)cc1 [Dihydro-(R,R)-4-OH-MC]",SERT-mediated current,SERT [5],did not elicit any DAT or SERT-mediated current
same,IC50,"SERT [1]; in Figure 3, read-out: IC50(SERT)",1400 µM
same,IC50,SERT [1]; [10],1370 µM
same,Selectivity ratio NET/DAT,human NET,0.61
same,IC50,human NET; [7],46.5 µM
same,DAT-mediated current,DAT [2],did not elicit any DAT or SERT-mediated current
same,Selectivity ratio DAT/SERT,DAT [3],48.42
same,IC50,DAT [3]; [8],28.2 µM
same,IC50,DAT [3]; [9],28.3 µM
same,Detected in urine samples,[4],−
"CN[C@H](C)[C@@H](O)c1ccc(CO)cc1 [Dihydro-(S,R)-4-OH-MMC]",IC50,SERT [1]; [10],3160 µM
same,Selectivity ratio NET/DAT,human NET,1.55
same,IC50,"human NET; QSAR data matrix, from IC50 NET, read-out: pIC50 NET (converted)",50.1 µM
same,Selectivity ratio DAT/SERT,DAT [3],40.99
same,IC50,DAT [3]; [8],77.6 µM
same,IC50,DAT [3]; [9],77 µM
same,Detected in urine samples,[4],−
"CN[C@H](C)C(=O)c1ccc(C)cc1 [2R-MMC, R-mephedrone, reference compound]",IC50,SERT [6],74.8 µM
same,IC50,"SERT [1]; pIC50 SERT, QSAR data matrix, from IC50 SERT",74.1 µM
same,IC50,human NET,2.75 µM
same,IC50,DAT [3]; [8],0.776 µM
